Tests used:
S. aureus DSM 20231 [1] = experiment: Bliss interaction score (quartile over a dose matrix) (fitness difference); higher = more antagonism (negative = synergy)
Outline: (§1)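 The Bliss score takes observed fitness and subtracts the expected fitness, calculated as a product of single-drug fitness values. Those single-drug values were inferred from the combination data. Fitness is OD595 at entry into stationary phase divided by the plate's robust no-drug mean, capped at 1, and the score is summarised by quartiles across technical, biological and donor/recipient replicates.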

B. subtilis 168 [2] = experiment: as above
Outline: as §1

S. pneumoniae D39V = experiment: as above
Outline: as §1

S. aureus Newman [3] = experiment: as above
Outline: as §1

S. aureus DSM 20231 [4] = experiment: fitness (endpoint OD595 vs no drug) (fraction); higher = more growth
Outline: (§2)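 In 384-well plates at 37 °C, cultures began at OD595 0.01 in 30 µl, with 55 µl used for S. pneumoniae. OD595 readings every 30 min for 14 h were corrected by the first reading. Fitness divides the stationary-phase transition optical density by the robust mean of no-drug control wells. The result is capped at 1.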

S. aureus Newman [5] = experiment: as above; details: main component drawn
Outline: as §2

B. subtilis 168 [6] = experiment: as above
Outline: as §2
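Wherever Bliss interaction score (quartile over a dose matrix) is given: first quartile when negative (synergy) and third quartile when positive (antagonism).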
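Wherever fitness (endpoint OD595 vs no drug) is given: OD595 on entry to stationary phase over no-drug wells; at most 1.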

Cn1c2cccc(=O)c-2nc2ccccc21 [Pyocyanin] + CCCCCCCCCC(=O)N[C@@H]1[C@H]([C@@H]([C@H](O[C@H]1OC2=C3C=C4C=C2OC5=C(C=C(C=C5)[C@H]([C@H]6C(=O)N[C@@H](C7=C(C(=CC(=C7)O)OC8[C@H]([C@H]([C@@H]([C@H](O8)CO)O)O)O)C9=C(C=CC(=C9)[C@H](C(=O)N6)NC(=O)[C@@H]4NC(=O)[C@@H]1C2=CC(=CC(=C2)OC2=C(C=CC(=C2)[C@H](C(=O)N[C@H](CC2=CC(=C(O3)C=C2)Cl)C(=O)N1)N)O)O)O)C(=O)O)O[C@H]1[C@@H]([C@H]([C@@H]([C@H](O1)CO)O)O)NC(=O)C)Cl)CO)O)O [Teicoplanin]
main component drawn
Details	Bliss interaction score
B. subtilis 168 [2]	-0.0698
S. aureus DSM 20231 [1]	0.0554
S. aureus Newman [3]	-0.114
S. pneumoniae D39V	0.0954

fitness
Details	first compound 1.25 µg/mL	first compound 2.5 µg/mL	first compound 5 µg/mL
S. aureus DSM 20231 [4], partner 0.1562 µg/mL, main component drawn	0.99	0.906	0.619
S. aureus DSM 20231 [4], partner 0.3125 µg/mL, main component drawn	≥ 1	0.962	0.647
S. aureus DSM 20231 [4], partner 0.625 µg/mL, main component drawn	≥ 1	≥ 1	0.691
S. aureus Newman [5], partner 0.62 µg/mL, one replicate	0.72	0.696	0.473
S. aureus Newman [5], partner 1.24 µg/mL, one replicate	0.698	0.558	0.238
S. aureus Newman [5], partner 2.48 µg/mL, one replicate	0.328	0.14	0.072

fitness, S. aureus Newman [5]
Details	first compound 1.25 µg/mL	first compound 2.5 µg/mL	first compound 5 µg/mL
partner 0.1562 µg/mL	0.958	0.805	0.372
partner 0.3125 µg/mL	0.891	0.769	0.35
partner 0.625 µg/mL	0.708	0.54	0.247

Cc1onc(-c2ccccc2)c1C(=O)N[C@@H]1C(=O)N2[C@@H]1SC(C)(C)[C@@H]2C(=O)O [Oxacillin] + COc1cc(Cc2cnc(N)nc2N)cc(OC)c1OC [Trimethoprim]
Details	Bliss interaction score
B. subtilis 168 [2]	0.0589
S. aureus DSM 20231 [1]	0.0401
S. aureus Newman [3]	-0.0935
S. pneumoniae D39V	0.164

one replicate
Details	fitness
B. subtilis 168 [6], first compound 0.002 µg/mL, partner 1 µg/mL	0.498
B. subtilis 168 [6], first compound 0.002 µg/mL, partner 2 µg/mL	0.37
B. subtilis 168 [6], first compound 0.004 µg/mL, partner 1 µg/mL	0.418
B. subtilis 168 [6], first compound 0.004 µg/mL, partner 2 µg/mL	0.257
B. subtilis 168 [6], first compound 0.0078 µg/mL, partner 0.1 µg/mL	0.898
B. subtilis 168 [6], first compound 0.0078 µg/mL, partner 0.125 µg/mL	0.385
B. subtilis 168 [6], first compound 0.0078 µg/mL, partner 0.2 µg/mL	0.804
B. subtilis 168 [6], first compound 0.0078 µg/mL, partner 0.4 µg/mL	0.578
B. subtilis 168 [6], first compound 0.008 µg/mL, partner 1 µg/mL	0.351
B. subtilis 168 [6], first compound 0.008 µg/mL, partner 2 µg/mL	0.304
B. subtilis 168 [6], first compound 0.0155 µg/mL, partner 0.1 µg/mL	0.839
B. subtilis 168 [6], first compound 0.0155 µg/mL, partner 0.125 µg/mL	0.363
B. subtilis 168 [6], first compound 0.0155 µg/mL, partner 0.2 µg/mL	0.802
B. subtilis 168 [6], first compound 0.0155 µg/mL, partner 0.4 µg/mL	0.599
B. subtilis 168 [6], first compound 0.031 µg/mL, partner 0.1 µg/mL	0.882
B. subtilis 168 [6], first compound 0.031 µg/mL, partner 0.125 µg/mL	0.352
B. subtilis 168 [6], first compound 0.031 µg/mL, partner 0.2 µg/mL	0.763
B. subtilis 168 [6], first compound 0.031 µg/mL, partner 0.4 µg/mL	0.536
B. subtilis 168 [6], first compound 0.075 µg/mL, partner 0.125 µg/mL	0.0694
B. subtilis 168 [6], first compound 0.075 µg/mL, partner 0.25 µg/mL	0.0331
B. subtilis 168 [6], first compound 0.075 µg/mL, partner 0.5 µg/mL	0.026
B. subtilis 168 [6], first compound 0.15 µg/mL, partner 0.125 µg/mL	0.0313
B. subtilis 168 [6], first compound 0.15 µg/mL, partner 0.25 µg/mL	0.0424
B. subtilis 168 [6], first compound 0.15 µg/mL, partner 0.5 µg/mL	0.0705
B. subtilis 168 [6], first compound 0.3 µg/mL, partner 0.125 µg/mL	0.0436
B. subtilis 168 [6], first compound 0.3 µg/mL, partner 0.25 µg/mL	0.0503
B. subtilis 168 [6], first compound 0.3 µg/mL, partner 0.5 µg/mL	0.0489
S. aureus DSM 20231 [4], first compound 0.0156 µg/mL, partner 0.125 µg/mL	0.558
S. aureus DSM 20231 [4], first compound 0.0312 µg/mL, partner 0.125 µg/mL	0.523
S. aureus DSM 20231 [4], first compound 0.0625 µg/mL, partner 0.125 µg/mL	0.477

fitness
Details	partner 0.25 µg/mL	partner 0.5 µg/mL	partner 1 µg/mL
B. subtilis 168 [6], first compound 0.002 µg/mL	–	0.46	–
B. subtilis 168 [6], first compound 0.004 µg/mL	–	0.475	–
B. subtilis 168 [6], first compound 0.008 µg/mL	–	0.467	–
B. subtilis 168 [6], first compound 0.031 µg/mL	–	0.384	–
S. aureus DSM 20231 [4], first compound 0.0156 µg/mL	0.561	0.129	0.0621
S. aureus DSM 20231 [4], first compound 0.0312 µg/mL	0.559	0.147	0.0523
S. aureus DSM 20231 [4], first compound 0.0625 µg/mL	0.438	0.0674	0.0399

CC[C@H]1OC(=O)[C@H](C)[C@@H](O[C@H]2C[C@@](C)(OC)[C@@H](O)[C@H](C)O2)[C@H](C)[C@@H](O[C@@H]2O[C@H](C)C[C@H](N(C)C)[C@H]2O)[C@](C)(O)C[C@@H](C)CN(C)[C@H](C)[C@@H](O)[C@]1(C)O [Azithromycin] + CCC[C@@H]1C[C@@H](C(=O)N[C@@H]([C@H]2O[C@H](SC)[C@H](O)[C@@H](O)[C@H]2O)[C@@H](C)O)N(C)C1 [Lincomycin]
Details	Bliss interaction score
B. subtilis 168 [2]	0.098
S. aureus DSM 20231 [1]	-0.0854
S. aureus Newman [3]	-0.105
S. pneumoniae D39V	0.0603

fitness
Details	partner 0.1 µg/mL	partner 0.2 µg/mL	partner 0.4 µg/mL	partner 0.8 µg/mL	partner 1.6 µg/mL
B. subtilis 168 [6], first compound 0.25 µg/mL	0.777	0.78	0.833	0.865	0.887
B. subtilis 168 [6], first compound 0.5 µg/mL	0.82	0.817	0.876	0.797	0.77
B. subtilis 168 [6], first compound 1 µg/mL	0.714	0.734	–	–	–
S. aureus DSM 20231 [4], first compound 0.125 µg/mL	0.873	0.754	–	–	–
S. aureus DSM 20231 [4], first compound 0.25 µg/mL	0.89	0.583	–	–	–
S. aureus DSM 20231 [4], first compound 0.5 µg/mL	0.386	0.147	0.106	–	–

B. subtilis 168 [6], first compound 2 µg/mL, one replicate
Details	fitness
partner 0.1 µg/mL	0.401
partner 0.2 µg/mL	0.24
partner 0.4 µg/mL	0.202

Cc1cc(NS(=O)(=O)c2ccc(N)cc2)no1 [Sulfamethoxazol] + COc1cc(Cc2cnc(N)nc2N)cc(OC)c1OC [Trimethoprim]
Details	Bliss interaction score
B. subtilis 168 [2]	-0.173
S. aureus DSM 20231 [1]	-0.481
S. aureus Newman [3]	0.0676
S. pneumoniae D39V	-0.364

fitness, one replicate
Details	first compound 0.5 µg/mL	first compound 1 µg/mL	first compound 2 µg/mL	first compound 4 µg/mL
B. subtilis 168 [6], partner 0.1 µg/mL	–	0.607	0.473	0.373
B. subtilis 168 [6], partner 0.125 µg/mL	0.481	–	–	0.285
B. subtilis 168 [6], partner 0.2 µg/mL	–	0.489	0.374	0.353
B. subtilis 168 [6], partner 0.25 µg/mL	0.389	–	–	–
B. subtilis 168 [6], partner 0.4 µg/mL	–	0.343	0.318	0.352
B. subtilis 168 [6], partner 0.5 µg/mL	0.299	–	–	–
B. subtilis 168 [6], partner 1 µg/mL	–	0.37	0.245	0.226
B. subtilis 168 [6], partner 2 µg/mL	–	0.323	0.163	0.109
S. aureus DSM 20231 [4], partner 0.125 µg/mL	–	0.534	0.22	0.041

fitness
Details	first compound 1 µg/mL	first compound 2 µg/mL	first compound 4 µg/mL
B. subtilis 168 [6], partner 0.125 µg/mL	0.375	0.305	–
B. subtilis 168 [6], partner 0.25 µg/mL	0.351	0.376	–
B. subtilis 168 [6], partner 0.5 µg/mL	0.35	0.337	0.288
S. aureus DSM 20231 [4], partner 0.25 µg/mL	0.0669	0.0417	0.023
S. aureus DSM 20231 [4], partner 0.5 µg/mL	0.015	0.0145	0.0126
S. aureus DSM 20231 [4], partner 1 µg/mL	0.0332	0.0147	0.013
